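Exposure lasted 48 hours, with cells grown in 96-well plates and compounds tested at five concentrations. GI50 is the concentration that inhibits growth by half. The concentration for full growth arrest is given as TGI.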
Key:
Assay in all cases: DTP human tumour cell line panel, 48 h
CAKI-1 renal = tested on: CAKI-1 renal
HCC-2998 colon = tested on: HCC-2998 colon
HL-60(TB) leukemia = tested on: HL-60(TB) leukemia
MDA-MB-231 breast = tested on: MDA-MB-231 breast
MOLT-4 leukemia = tested on: MOLT-4 leukemia
RPMI-8226 leukemia = tested on: RPMI-8226 leukemia
SK-MEL-28 melanoma = tested on: SK-MEL-28 melanoma
TK-10 renal = tested on: TK-10 renal

Row | SMILES | GI50 (CAKI-1 renal) [µM] | TGI (CAKI-1 renal) [µM] | GI50 (HCC-2998 colon) [µM] | TGI (HCC-2998 colon) [µM] | GI50 (HL-60(TB) leukemia) [µM] | TGI (HL-60(TB) leukemia) [µM] | GI50 (MDA-MB-231 breast) [µM] | TGI (MDA-MB-231 breast) [µM] | GI50 (MOLT-4 leukemia) [µM] | TGI (MOLT-4 leukemia) [µM] | GI50 (RPMI-8226 leukemia) [µM] | TGI (RPMI-8226 leukemia) [µM] | GI50 (SK-MEL-28 melanoma) [µM] | TGI (SK-MEL-28 melanoma) [µM] | GI50 (TK-10 renal) [µM] | TGI (TK-10 renal) [µM]
1 | O=C1c2ccccc2C(=O)c2c(NCCN=Cc3ccccc3O)cccc21 | 0.434 | 2.8 | 7.82 | 22.6 | 0.235 | 3.89 | 7.91 | > 80.6 | 3.33 | > 30.5 | 0.714 | 2.62 | 3.21 | 10.4 | 1.99 | 6.17
2 | O=C(NC1CCCCC1)c1ccc(Nc2ncnc3c2cnn3-c2ccccc2)cc1 | 14 | > 100 | > 100 | > 100 |  |  | 5.09 | 21.9 | 75.6 | > 100 | > 100 | > 100 | 3.79 | > 100 | 16.5 | 49.5
3 | Cc1ccc2occ/c(=N\Nc3ccccc3)c2c1 |  | > 100 |  | > 100 |  | > 100 |  | > 100 |  |  |  | > 100 |  | > 100 |  | > 100
4 | O=C(CCN1CCOCC1)Nc1cccc(-n2cc(-c3ccncc3)c(-c3ccc(Cl)c(O)c3)n2)c1 |  |  | 4.57 | 17.3 | 2.37 | 6.61 | 2.6 | 6.84 | 2.65 | 11.9 | 2.8 | 15.1 | 1.53 | 3.33 | 8.18 | 20.7
5 | Cc1noc2c1-c1ccccc1C(c1ccc(Cl)cc1)=N[C@H]2CC(N)=O | 0.368 | > 100 | 9.5 | > 100 | 0.398 | > 33.8 | 7.56 | > 100 | 7.71 | > 100 | 0.362 | 10.7 | 7.38 | > 100 | 0.486 | > 100
6 | CNC(C)[C@H]1CCC2C3CC=C4C(=O)[C@@H](NC(=O)C=C(C)C)CC[C@]4(C)C3CC[C@@]21C (stereo partly specified) | 1.68 | 5.53 | 0.626 | 3.02 | 1.83 | 4.75 | 1.89 | 4.74 | 1.27 | 3.89 | 1.13 | 5.27 | 1.69 | 3.3 | 2.89 | 10.4
7 | COc1cc(/C=C2\CCC/C(=C\c3ccc(OCC4CO4)c(OC)c3)C2=O)ccc1OCC1CO1 (stereo unspecified) | 3.3 | > 100 | 2.25 | 4.75 | 3.59 | > 100 |  |  | 2.91 | 34.1 |  |  | 1.81 | 3.43 | 4.04 | 17.6
8 | COc1cc(C(=O)O[C@H](C(N)=O)[C@]2(C)CO2)c2cccc(C)c2c1 | < 0.0211 |  | 0.0257 | 0.54 |  |  | 0.016 | 1.29 |  |  |  |  | 0.0744 | 1.7 | < 0.0406 | 
9 | COc1ccc(-c2noc(N)c2-c2cc(OC)c3c(c2)OCO3)cc1 | 3.21 | > 100 | 3.68 | > 33.9 | 1.64 | 7.6 | 2.76 | 60.9 | 1.98 | > 64.1 | 3.25 | > 49.9 | 6.31 | > 100 | 7.8 | > 100
10 | C=C1C(=O)OC2C1CC(OC(C)=O)/C(C)=C/CCC1(C)OC21 (stereo unspecified) |  | > 100 |  | > 100 |  | > 100 |  | > 100 |  | > 100 |  | > 100 |  | > 100 |  | 
11 | Clc1nc(Cl)c2ncn(Cc3ccccc3Cn3cnc4c(Cl)nc(Cl)nc43)c2n1 | 2.32 | 6.41 | 1.88 | 3.56 | 1.79 | 9.14 | 1.55 | 3.01 | 1.99 | 5.13 |  |  | 2.96 | 11.8 | 2.93 | 11
12 | NCCCOc1cc(Cl)ccc1NC(=O)c1cc2ccccc2cc1OCCCN | 1.6 | 3.64 | 1.39 | 2.82 | 0.665 | 2.39 | 1.19 | 2.69 | 1.51 | 3.25 |  |  | 1.81 | 3.23 | 1.73 | 3.38
13 | COc1cc2c3c(n(CCCN(CCO)CCO)c(=O)c2cc1OC)-c1cc2c(cc1C3=O)OCO2 | < 0.01 | < 0.018 | < 0.01 | < 0.01 | < 0.01 | 2.29 | 0.583 | 2.42 | < 0.01 | < 0.01 | < 0.01 | 0.207 | 2.27 | 26.6 | 1.23 | 6.02
14 | Cn1cc(-c2csc(-c3cn(C)c4ccc(F)cc34)n2)c2cnccc21 | 1.77 | 3.19 | 1.86 | 3.55 | 1.93 | 3.87 | 1.75 | 3.26 |  |  | 1.98 | 4.14 | 1.79 | 3.22 | 1.56 | 2.98
15 | Oc1ccc(Oc2cnc3ccccc3n2)cc1 | 29.5 | 81.1 | > 100 | > 100 | 26.3 | > 100 | > 100 | > 100 | 41.4 | > 100 | > 100 | > 100 | > 100 | > 100 | > 100 | > 100
16 | COc1ccc(-c2cc(Nc3ccnc(N4CCOCC4)n3)on2)cc1 | 0.089 | 18.7 | 0.461 | 10.6 | 0.2 | 1.88 | 0.339 | 22.5 | 0.766 | 25.5 | 0.416 | 18.6 | 4.1 | 19.9 | 10.9 | 24.9

From PubChem BioAssay (NCI)
